Data as given in publication PMC5936838, “Structural implications of hERG K^+ channel block by a high-affinity minimally structured blocker” (The Journal of Biological Chemistry, 2018).
Values joined by “and” are separate entries in the source; they are usually repeats but may differ in a detail not shown here. Equal values may be shown once. “Also recorded” adds a separate entry of the source.

Assays:
WT hERG [1] = biological target: T1, WT hERG (Homo sapiens, UniProt Q12809); test: Whole-cell patch-clamp recording of IhERG, WT hERG in HEK293 cells at 37 °C; type: cell-based
T1 construct: expressed in transfected cells
Description: (§1) A HEK293 cell line stably expressing WT hERG channels was kindly donated by Prof. Craig January ([51]). The pore helix (T623A and S624A) and S6 helix (F656A) alanine mutants, attenuated-inactivation mutants (N588K and S620T), and S5 mutant F557L were all generated and used as described previously ([3], [18], [41], [52]). The HEK293 cell line stably expressing the hERG S6 helix mutant Y652A was used in this study as described previously ([52]).
(§2) HEK293 cells stably or transiently expressing hERG constructs were maintained as described previously ([18], [19], [52]). Cells were plated in 40-mm Petri dishes at least 48 h before transfection and incubated at 37 °C with 5% CO2. Cells were transfected either with Lipofectamine^TM 2000 (Invitrogen) or Lipofectamine LTX (Invitrogen) following the manufacturer's instructions. The amount of hERG construct DNA that was transfected varied between 0.1 and 1.0 μg depending on the level of functional expression. 0.15 μg of CD8 was cotransfected as a transfection marker, and successfully transfected cells were identified using Dynabeads® (Invitrogen). Cells were plated on sterilized glass shards in 40-mm Petri dishes and incubated at 37 °C (5% CO2) at least 24 h before electrophysiological recording; this was to allow time for cell recovery and hERG construct expression.
For IhERG recordings, glass shards containing plated cells were placed in a recording chamber mounted on an inverted microscope (Nikon Diaphot). The cells were superfused continuously with Tyrode's solution containing 140 mM NaCl, 4 mM KCl, 2.5 mM CaCl2, 1 mM MgCl2, 10 mM glucose, 5 mM HEPES (titrated to pH 7.4 with NaOH). As described previously ([18], [19]), a modified “high-K^+” version of this solution (containing 94 mM KCl and 50 mM NaCl) was used to obtain recordable currents from comparatively poorly expressed hERG mutants (T623A and F656A). Patch pipettes (Schott number 8250 glass, A-M Systems Inc.) were pulled (Narishige, PP 830) and polished (Narishige, MF 83) to final resistance values between 2 and 4 megaohms. The patch pipettes were filled with intracellular solutio, containing 130 mM KCl, 1 mM MgCl2, 5 mM EGTA, 5 mM MgATP, and 10 mM HEPES (titrated to pH 7.2 with KOH). Pipette resistance compensation was between 70 and 80%. Cavalli-2 ([30]), which was synthesized by Ascent Scientific (Abcam Ltd.), was dissolved in DMSO to produce 100 μM, 1 mM, and 10 mM stock solutions. Stock solutions were diluted either in standard or high-K^+ Tyrode's solution as appropriate to obtain final concentrations stated under “Results.” Solutions were preheated to 37 ± 1 °C and applied to single cells using a homemade, multibarreled superfusion system, enabling rapid superfusate exchange (<1 s) ([53]). Thus, measurements of IhERG were made at 37 ± 1 °C as described previously ([18], [19], [52], [54], [55]).
All IhERG recordings were made using an Axopatch 200B amplifier (Axon Instruments, now Molecular Devices) and a CV203BU head stage. Data were acquired using a Digidata 1320 interface (Axon Instruments, now Molecular Devices). Data digitization rates were between 10 and 25 kHz during all voltage protocols, and an appropriate bandwidth between 2 and 10 kHz was set on the amplifier. For WT hERG and most of the mutant channels studied, activating voltage commands to +20 mV were used with tail currents observed at either […] (for most mutants) or −120 mV (for T623A and F656A) ([18][–][20], [33]). The level of block of WT and mutant IhERG by Cavalli-2 was attained by repetitive protocol application for 5 min, and fractional inhibition of IhERG tails was measured. […]

N588K hERG = biological target: T2, N588K hERG (Homo sapiens, UniProt Q12809, N588K); test: Whole-cell patch-clamp recording of IhERG, attenuated-inactivation mutant N588K; type: cell-based
T2 construct: expressed in transfected cells; host or cells: HEK293
Description: as §1, §2
(§3) For IhERG recordings, glass shards containing plated cells were placed in a recording chamber mounted on an inverted microscope (Nikon Diaphot). The cells were superfused continuously with Tyrode's solution containing 140 mM NaCl, 4 mM KCl, 2.5 mM CaCl2, 1 mM MgCl2, 10 mM glucose, 5 mM HEPES (titrated to pH 7.4 with NaOH). As described previously ([18], [19]), a modified “high-K^+” version of this solution (containing 94 mM KCl and 50 mM NaCl) was used to obtain recordable currents from comparatively poorly expressed hERG mutants (T623A and F656A). Patch pipettes (Schott number 8250 glass, A-M Systems Inc.) were pulled (Narishige, PP 830) and polished (Narishige, MF 83) to final resistance values between 2 and 4 megaohms. […]

S620T hERG = biological target: T3, S620T hERG (Homo sapiens, UniProt Q12809, S620T); test: Whole-cell patch-clamp recording of IhERG, attenuated-inactivation mutant S620T; type: cell-based
T3 construct: expressed in transfected cells; host or cells: HEK293
Description: as §1
as §2, with “construct expression. […]” for “construct expression.”

T623A hERG = biological target: T4, T623A hERG (Homo sapiens, UniProt Q12809, T623A); test: Whole-cell patch-clamp recording of IhERG, pore helix mutant T623A; type: cell-based
T4 construct: expressed in transfected cells; host or cells: HEK293
Description: as §1
as §2, with “construct expression. […]” for “construct expression.”

S624A hERG = biological target: T5, S624A hERG (Homo sapiens, UniProt Q12809, S624A); test: Whole-cell patch-clamp recording of IhERG, pore helix mutant S624A; type: cell-based
T5 construct: expressed in transfected cells; host or cells: HEK293
Description: as §1
as §2, with “construct expression. […]” for “construct expression.”

Y652A hERG = biological target: T6, Y652A hERG (Homo sapiens, UniProt Q12809, Y652A); test: Whole-cell patch-clamp recording of IhERG, S6 helix mutant Y652A; type: cell-based
T6 construct: expressed in transfected cells
Description: as §1, §2, §3

F656A hERG = biological target: T7, F656A hERG (Homo sapiens, UniProt Q12809, F656A); test: Whole-cell patch-clamp recording of IhERG, S6 helix mutant F656A; type: cell-based
T7 construct: expressed in transfected cells; host or cells: HEK293
Description: as §1, §2, §3

F557L hERG = biological target: T8, F557L hERG (Homo sapiens, UniProt Q12809, F557L); test: Whole-cell patch-clamp recording of IhERG, S5 mutant F557L; type: cell-based
T8 construct: expressed in transfected cells; host or cells: HEK293
Description: as §1, §2
The F557L hERG mutation was generated using the Quik Change® site-directed mutagenesis kit (Stratagene, La Jolla, CA). In brief, a pair of complementary oligonucleotide primers containing the mutation (forward primer sequence, 5′[…]-3′; reverse primer sequence, 5′[…]-3′; synthesized by Sigma-Genosys, Haverhill, UK) was used in a PCR (95 °C for 1 min, 60 °C for 1 min, and 68 °C for 16 min for 18 cycles) by using hERG in a modified pcDNA3.0 vector as a DNA template. A DpnI digest of the PCR mixture was then performed for 1 h at 37 °C. Competent DH5α Escherichia coli (Invitrogen) were transformed using standard procedures. The mutation was confirmed by sequencing of the entire ORF (Eurofins MWG Operon, Ebersberg, Germany). […]

WT hERG [2] = biological target: T1, WT hERG; test: Whole-cell patch-clamp recording of IhERG, WT hERG in HEK293 cells at 37 °C; type: cell-based; remark: listed apart in the source
hERG = tested on: hERG; design: method as in earlier work; conditions: HEK cells at room temperature; ref 30 (Cavalli et al.); cited from earlier work

T3 sequence (Q12809 whole entry S620T): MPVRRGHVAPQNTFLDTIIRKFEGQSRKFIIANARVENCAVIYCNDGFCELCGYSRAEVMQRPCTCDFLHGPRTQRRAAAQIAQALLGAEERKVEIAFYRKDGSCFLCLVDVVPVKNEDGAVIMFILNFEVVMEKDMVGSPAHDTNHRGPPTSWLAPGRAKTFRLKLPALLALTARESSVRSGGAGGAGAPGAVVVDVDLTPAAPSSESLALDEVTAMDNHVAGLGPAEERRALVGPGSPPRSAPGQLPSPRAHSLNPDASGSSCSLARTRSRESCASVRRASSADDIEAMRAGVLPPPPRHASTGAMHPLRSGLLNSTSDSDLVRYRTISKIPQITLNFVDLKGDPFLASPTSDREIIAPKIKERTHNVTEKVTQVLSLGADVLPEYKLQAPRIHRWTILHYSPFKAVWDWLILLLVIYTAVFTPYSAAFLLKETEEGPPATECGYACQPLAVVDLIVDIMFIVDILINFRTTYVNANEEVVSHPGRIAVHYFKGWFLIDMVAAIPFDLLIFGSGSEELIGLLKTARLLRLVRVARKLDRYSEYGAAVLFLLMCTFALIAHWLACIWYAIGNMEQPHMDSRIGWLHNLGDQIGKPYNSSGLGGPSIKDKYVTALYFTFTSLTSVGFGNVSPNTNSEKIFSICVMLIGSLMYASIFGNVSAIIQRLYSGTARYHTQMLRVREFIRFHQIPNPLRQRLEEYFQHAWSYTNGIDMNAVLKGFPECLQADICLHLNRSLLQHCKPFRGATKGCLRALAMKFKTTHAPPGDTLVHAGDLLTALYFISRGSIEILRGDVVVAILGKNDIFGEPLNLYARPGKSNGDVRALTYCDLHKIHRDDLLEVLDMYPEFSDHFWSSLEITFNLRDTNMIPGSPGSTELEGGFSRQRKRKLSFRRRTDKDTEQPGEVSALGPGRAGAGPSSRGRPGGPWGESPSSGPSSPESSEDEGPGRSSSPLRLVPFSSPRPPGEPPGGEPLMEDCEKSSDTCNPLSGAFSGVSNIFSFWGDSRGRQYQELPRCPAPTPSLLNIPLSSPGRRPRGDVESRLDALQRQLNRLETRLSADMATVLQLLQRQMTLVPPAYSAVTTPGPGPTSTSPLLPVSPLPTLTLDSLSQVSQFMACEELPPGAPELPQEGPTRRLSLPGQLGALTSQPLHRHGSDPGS
T1 sequence (Q12809 whole entry): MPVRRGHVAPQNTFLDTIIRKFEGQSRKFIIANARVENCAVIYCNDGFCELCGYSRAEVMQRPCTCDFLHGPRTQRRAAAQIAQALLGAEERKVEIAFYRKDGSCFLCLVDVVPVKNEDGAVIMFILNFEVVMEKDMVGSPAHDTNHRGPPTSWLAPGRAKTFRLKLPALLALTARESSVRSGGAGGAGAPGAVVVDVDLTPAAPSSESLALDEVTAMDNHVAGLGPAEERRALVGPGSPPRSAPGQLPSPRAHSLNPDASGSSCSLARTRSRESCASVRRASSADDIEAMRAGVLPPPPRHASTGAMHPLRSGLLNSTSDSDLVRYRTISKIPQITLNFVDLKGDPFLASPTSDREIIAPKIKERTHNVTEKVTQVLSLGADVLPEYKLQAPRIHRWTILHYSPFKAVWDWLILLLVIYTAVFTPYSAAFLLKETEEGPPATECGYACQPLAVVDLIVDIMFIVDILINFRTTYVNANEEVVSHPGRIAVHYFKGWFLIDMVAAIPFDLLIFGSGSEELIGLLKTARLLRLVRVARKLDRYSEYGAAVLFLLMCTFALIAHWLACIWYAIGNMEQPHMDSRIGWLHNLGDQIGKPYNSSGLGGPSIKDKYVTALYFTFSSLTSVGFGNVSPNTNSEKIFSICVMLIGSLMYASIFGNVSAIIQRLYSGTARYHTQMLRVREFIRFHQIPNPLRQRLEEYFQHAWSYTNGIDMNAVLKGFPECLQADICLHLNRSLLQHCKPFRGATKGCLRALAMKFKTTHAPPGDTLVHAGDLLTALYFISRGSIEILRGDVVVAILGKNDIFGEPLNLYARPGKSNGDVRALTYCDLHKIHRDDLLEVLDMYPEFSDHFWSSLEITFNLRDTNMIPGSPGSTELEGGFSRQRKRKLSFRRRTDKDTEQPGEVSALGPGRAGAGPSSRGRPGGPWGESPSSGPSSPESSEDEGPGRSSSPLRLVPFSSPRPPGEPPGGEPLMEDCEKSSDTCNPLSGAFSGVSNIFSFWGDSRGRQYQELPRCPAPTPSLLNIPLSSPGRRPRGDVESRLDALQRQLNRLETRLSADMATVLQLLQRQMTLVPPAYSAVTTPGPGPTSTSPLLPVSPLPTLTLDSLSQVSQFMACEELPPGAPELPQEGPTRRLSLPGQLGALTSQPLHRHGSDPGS
T2 sequence (Q12809 whole entry N588K): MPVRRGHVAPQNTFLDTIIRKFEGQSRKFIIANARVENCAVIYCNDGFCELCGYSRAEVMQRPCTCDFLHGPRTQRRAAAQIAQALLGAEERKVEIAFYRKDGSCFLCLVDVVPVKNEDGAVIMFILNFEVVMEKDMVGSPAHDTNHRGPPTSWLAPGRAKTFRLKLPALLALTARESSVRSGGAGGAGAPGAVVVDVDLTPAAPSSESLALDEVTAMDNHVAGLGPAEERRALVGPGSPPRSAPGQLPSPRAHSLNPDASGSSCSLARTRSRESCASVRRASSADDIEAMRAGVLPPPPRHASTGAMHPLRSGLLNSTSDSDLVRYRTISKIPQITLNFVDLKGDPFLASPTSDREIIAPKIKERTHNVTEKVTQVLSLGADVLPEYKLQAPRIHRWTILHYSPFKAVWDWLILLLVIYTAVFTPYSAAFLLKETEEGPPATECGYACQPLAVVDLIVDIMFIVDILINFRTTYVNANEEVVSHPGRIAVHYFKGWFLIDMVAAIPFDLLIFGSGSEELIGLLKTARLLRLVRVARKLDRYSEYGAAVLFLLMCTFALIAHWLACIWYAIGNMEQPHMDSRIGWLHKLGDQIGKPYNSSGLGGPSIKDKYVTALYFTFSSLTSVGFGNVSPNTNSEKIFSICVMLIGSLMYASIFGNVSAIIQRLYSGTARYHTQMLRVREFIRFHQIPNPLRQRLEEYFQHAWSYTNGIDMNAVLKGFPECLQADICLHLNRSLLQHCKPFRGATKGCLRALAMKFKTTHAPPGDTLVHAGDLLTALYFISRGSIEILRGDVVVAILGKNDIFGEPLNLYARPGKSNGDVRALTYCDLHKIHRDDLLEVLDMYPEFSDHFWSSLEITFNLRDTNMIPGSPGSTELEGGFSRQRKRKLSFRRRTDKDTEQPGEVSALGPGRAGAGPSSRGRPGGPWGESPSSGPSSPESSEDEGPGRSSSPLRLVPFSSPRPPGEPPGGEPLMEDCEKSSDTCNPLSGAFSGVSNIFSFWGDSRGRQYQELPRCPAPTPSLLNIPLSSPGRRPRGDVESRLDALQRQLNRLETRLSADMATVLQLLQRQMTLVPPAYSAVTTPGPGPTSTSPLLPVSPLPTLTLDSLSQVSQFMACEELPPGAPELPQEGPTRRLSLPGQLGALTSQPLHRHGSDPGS
T8 sequence (Q12809 whole entry F557L): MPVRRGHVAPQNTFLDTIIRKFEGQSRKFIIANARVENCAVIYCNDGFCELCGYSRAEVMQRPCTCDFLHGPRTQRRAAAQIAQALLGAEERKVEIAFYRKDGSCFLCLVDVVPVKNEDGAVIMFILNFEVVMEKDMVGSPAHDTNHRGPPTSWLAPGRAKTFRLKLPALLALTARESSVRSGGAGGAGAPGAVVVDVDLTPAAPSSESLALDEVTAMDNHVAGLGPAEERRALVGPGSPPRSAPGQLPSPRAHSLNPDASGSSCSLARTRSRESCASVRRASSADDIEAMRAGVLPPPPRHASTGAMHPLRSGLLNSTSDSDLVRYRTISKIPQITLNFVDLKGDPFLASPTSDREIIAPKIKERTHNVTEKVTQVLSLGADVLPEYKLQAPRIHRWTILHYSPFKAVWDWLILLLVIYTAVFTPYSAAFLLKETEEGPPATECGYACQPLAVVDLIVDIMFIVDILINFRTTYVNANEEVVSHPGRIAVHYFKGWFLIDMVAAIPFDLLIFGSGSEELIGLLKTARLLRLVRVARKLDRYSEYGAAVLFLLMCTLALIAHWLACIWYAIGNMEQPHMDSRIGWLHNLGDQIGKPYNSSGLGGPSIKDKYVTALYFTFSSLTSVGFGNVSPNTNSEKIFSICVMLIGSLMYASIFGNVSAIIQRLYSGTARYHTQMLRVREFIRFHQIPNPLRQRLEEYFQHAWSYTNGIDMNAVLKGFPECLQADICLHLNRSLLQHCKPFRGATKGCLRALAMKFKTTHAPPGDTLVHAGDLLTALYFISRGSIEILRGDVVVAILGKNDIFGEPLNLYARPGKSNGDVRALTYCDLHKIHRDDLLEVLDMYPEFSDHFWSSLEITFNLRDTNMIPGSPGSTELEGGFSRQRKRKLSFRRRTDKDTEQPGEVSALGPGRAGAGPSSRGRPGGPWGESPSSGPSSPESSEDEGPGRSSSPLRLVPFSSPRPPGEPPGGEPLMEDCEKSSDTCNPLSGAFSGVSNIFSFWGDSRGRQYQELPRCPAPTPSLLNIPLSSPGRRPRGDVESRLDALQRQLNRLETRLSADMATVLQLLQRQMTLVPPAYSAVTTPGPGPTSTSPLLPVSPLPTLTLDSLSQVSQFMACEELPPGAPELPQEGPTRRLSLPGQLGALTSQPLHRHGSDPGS

SMILES: c1ccc(CCCNCCC(c2ccccc2)c2ccccc2)cc1 [Cavalli-2]
- k (slope) of IhERG activation in the presence of compound (WT hERG [1]; 30 nM): 5.0 ± 1.5 and 5.03 ± 1.50 and 4.8 ± 1.1
- k of IhERG inactivation in the presence of compound (WT hERG [1]; 30 nM): 19.9 ± 1.1 and 20.1 ± 1.3
- ΔV0.5 of activation (WT hERG [1]; 30 nM vs control): -4.68 mV
- inactivation τ in the presence of compound (WT hERG [1]; 30 nM, +40 mV after 2-ms step to −120 mV, control 1.4 ± 0.2 ms): 1.6 ± 0.5 ms
- voltage dependence of fractional inhibition of WT IhERG (WT hERG [1]; 30 nM, test depolarizations −30 to +60 mV): voltage-dependent over the tested range
- fractional inhibition of IhERG during +40-mV phase vs 0-mV phases (WT hERG [1]; 30 nM, three-step protocol 0/+40/0 mV): significantly reduced
- δ value (Woodhull analysis) (WT hERG [1]; KD at +60 mV vs 0 mV): 0.2
- IC50 at 5 min (WT hERG [1]; human, HEK293 cells stably expressing WT hERG, pH 7.4, WT-2, inward IhERG tails, voltage step −120 mV, 94 mM K+): 17.5 nM
- recovery at 30 nM (WT hERG [1]; human, HEK293 cells stably expressing WT hERG, pH 7.4, washout after 30 nM, five cells, read-out: recovery on washout, of control amplitude): 59.5 ± 4.1%
- Potency reduction compared with its WT-control (fold WT IC50) (N588K hERG; N588K vs WT-1): 15 fold and 15.3 fold
- inhibition at 5 min, 0.3 µM (N588K hERG; human, HEK293 cells expressing N588K hERG, pH 7.4, 300 nM): < 50%
- IC50 at 5 min (N588K hERG; human, HEK293 cells expressing N588K hERG, pH 7.4, N588K, −40 mV, 4 mM K+): 544 nM
- Potency reduction compared with its WT-control (fold WT IC50) (S620T hERG; S620T vs WT-1): 54 fold and 53.8 fold
- IC50 at 5 min (S620T hERG; human, HEK293 cells expressing S620T hERG, pH 7.4, S620T, −40 mV, 4 mM K+): 1920 nM
- Potency reduction compared with its WT-control (fold WT IC50) (T623A hERG; T623A vs WT-2): 16 fold and 16.1 fold
- IC50 at 5 min (T623A hERG; human, HEK293 cells expressing T623A hERG, pH 7.4, T623A, −120 mV, 94 mM K+): 281 nM
- Potency reduction compared with its WT-control (fold WT IC50) (S624A hERG; S624A vs WT-1): 7 fold and 7.4 fold
- IC50 at 5 min (S624A hERG; human, HEK293 cells expressing S624A hERG, pH 7.4, S624A, −40 mV, 4 mM K+): 262 nM
- voltage dependence of Y652A IhERG tail inhibition (Y652A hERG; 300 nM, −20 to +40 mV): eliminated voltage dependence of inhibition; also recorded: no significant voltage dependence
- Potency reduction compared with its WT-control (fold WT IC50) (Y652A hERG; Y652A vs WT-1): 17 fold and 16.7 fold
- IC50 at 5 min (Y652A hERG; human, HEK293 cells stably expressing Y652A hERG, pH 7.4, Y652A, −40 mV, 4 mM K+): 594 nM
- reduction of F656A IhERG (F656A hERG; 1 μM, −120 mV, high K+): ~40%
- Potency reduction compared with its WT-control (fold WT IC50) (F656A hERG; F656A vs WT-2): 75 fold and 75.1 fold
- IC50 at 5 min (F656A hERG; human, HEK293 cells expressing F656A hERG, pH 7.4, F656A, −120 mV, 94 mM K+): 1320 nM
- voltage dependence of F557L IhERG tail inhibition (F557L hERG; 300 nM, −20 to +40 mV): eliminated voltage dependence of inhibition; also recorded: no significant voltage dependence; also recorded: nearly abolished
- Potency reduction compared with its WT-control (fold WT IC50) (F557L hERG; F557L vs WT-1): 10 fold and 9.5 fold
- IC50 at 5 min (F557L hERG; human, HEK293 cells expressing F557L hERG, pH 7.4, F557L, −40 mV, 4 mM K+): 339 nM
- IhERG tail inhibition (WT hERG [2]; 30 nM, standard protocol, tails at −40 mV, 4 mM K+): 50.2 ± 2.0%
- change in t½ of IhERG deactivation (WT hERG [2]; 30 nM, tails at −40 mV): No significant change
- IC50 (WT hERG [2]; WT-1, IhERG tails, voltage step −40 mV, 4 mM K+, HEK293, 37 °C): 35.6 nM
- inhibition at 5 min, 0.03 µM (WT hERG [2]; human, HEK293 cells stably expressing WT hERG, pH 7.4, 30 nM, AP voltage clamp, read-out: inhibition of peak IhERG during ventricular action potential waveform): 42.3 ± 6.7%
- inhibition at 5 min, 30 nM (WT hERG [2]; human, HEK293 cells stably expressing WT hERG, pH 7.4, 30 nM, standard protocol, tails at −40 mV, 4 mM K+, read-out: IhERG tail inhibition): ~50%
- IC50 at 5 min (WT hERG [2]; human, HEK293 cells stably expressing WT hERG, pH 7.4, WT-1, IhERG tails, voltage step −40 mV, 4 mM K+, HEK293, 37 °C): 36 nM
- IC50 (hERG): 17 nM
